pEC50: −log10 of the molar value.

The first test has as its system Eotaxin-3 (CCL26) release in human whole blood stimulated with IL-4. Briefly: Human whole blood eotaxin-3 assay (IL-4 stimulated, Eotaxin-3 release). The format is cell-based. The settings on record: Homo sapiens, 48 h. In outline:
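Lithium-heparin blood preincubated 2 h at 37° C with 4-fold compound dilutions (0.5% DMSO, triplicates), then stimulated with 400 pM recombinant human IL-4 for 48 h. Eotaxin-3 in plasma supernatant measured by MSD immunoassay.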
Take `[2H]C([2H])([2H])N(C(=O)c1cnc(C2=CCN(Cc3cc4c(-c5cnc(N)cc5F)ccnc4n3C)CC2)nc1)C([2H])([2H])[2H]` [Example 1z11, 2-(1-((4-(6-amino-4-fluoropyridin-3-yl)-1-methyl-1H-pyrrolo[2,3-b]pyridin-2-yl)methyl)-1,2,3,6-tetrahydropyridin-4-yl)-N,N-bis(methyl-d3)pyrimidine-5-carboxamide]: the Emax lay in the range of 20 to 30%. As for `[2H]C([2H])([2H])N(C(=O)c1cnc(C2=CCN(Cc3cc4c(-c5ccc(N)nc5C#N)ccnc4n3C)CC2)nc1)C([2H])([2H])[2H]` [Example 1z15, 2-(1-((4-(6-amino-2-cyanopyridin-3-yl)-1-methyl-1H-pyrrolo[2,3-b]pyridin-2-yl)methyl)-1,2,3,6-tetrahydropyridin-4-yl)-N,N-bis(methyl-d3)pyrimidine-5-carboxamide], the maximum response (Emax) is less than 20%. With `CN(C)C(=O)c1ncc(C2=CCN(Cc3cc4c(-c5ccc(N)nn5)ccnc4n3C)CC2)cn1` [Example 1z21, 5-(1-((4-(6-aminopyridazin-3-yl)-1-methyl-1H-pyrrolo[2,3-b]pyridin-2-yl)methyl)-1,2,3,6-tetrahydropyridin-4-yl)-N,N-dimethylpyrimidine-2-carboxamide], the Emax lay within 20 to 30%.

Turning to `CN(C)C(=O)c1ccc(C2CCN(Cc3cc4c(-c5ccc(N)nn5)ccnc4n3C)CC2)cc1` [Example 1z22, 4-(1-((4-(6-aminopyridazin-3-yl)-1-methyl-1H-pyrrolo[2,3-b]pyridin-2-yl)methyl)piperidin-4-yl)-N,N-dimethylbenzamide], the Emax is less than 20%.

Still in this test, the particulars now being: Homo sapiens, Hec50, 48 h.
In turn, `[2H]C([2H])([2H])N(C(=O)c1ccc([C@@H]2CCN(Cc3cc4c(-c5ccc(N)cn5)ccnc4n3C)[C@H](C)C2)cc1)C([2H])([2H])[2H]` [Example 1z9, 4-((2R,4R)-1-((4-(5-aminopyridin-2-yl)-1-methyl-1H-pyrrolo[2,3-b]pyridin-2-yl)methyl)-2-methylpiperidin-4-yl)-N,N-bis(methyl-d3)benzamide] gave a pEC50 of 6.78. `CN(C)C(=O)c1ccc(C2=CCN(Cc3cc4c(-c5ccc(N)nc5)ccnc4n3C)CC2)c(C#N)c1` [Example 1z10, 4-(1-((4-(6-aminopyridin-3-yl)-1-methyl-1H-pyrrolo[2,3-b]pyridin-2-yl)methyl)-1,2,3,6-tetrahydropyridin-4-yl)-3-cyano-N,N-dimethylbenzamide] had a pEC50 of 6.33. The compound `Cc1cc(C(=O)N(C)C)cc(C)c1C1=CCN(Cc2cc3c(-c4ccc(N)nn4)ccnc3n2C)CC1` [Example 1z12, 4-(1-((4-(6-aminopyridazin-3-yl)-1-methyl-1H-pyrrolo[2,3-b]pyridin-2-yl)methyl)-1,2,3,6-tetrahydropyridin-4-yl)-N,N,3,5-tetramethylbenzamide] had a pEC50 of 7.24. The compound `Cc1cc(C(=O)N(C)C)cc(F)c1C1=CCN(Cc2cc3c(-c4ccc(N)nn4)ccnc3n2C)CC1` [Example 1z14, 4-(1-((4-(6-aminopyridazin-3-yl)-1-methyl-1H-pyrrolo[2,3-b]pyridin-2-yl)methyl)-1,2,3,6-tetrahydropyridin-4-yl)-3-fluoro-N,N,5-trimethylbenzamide] showed a pEC50 of 7.42. In the case of `CN(C)C(=O)c1cc(F)c(C2=CCN(Cc3cc4c(-c5ccc(N)nc5)ccnc4n3C)CC2)c(F)c1` [Example 1z16, 4-(1-((4-(6-aminopyridin-3-yl)-1-methyl-1H-pyrrolo[2,3-b]pyridin-2-yl)methyl)-1,2,3,6-tetrahydropyridin-4-yl)-3,5-difluoro-N,N-dimethylbenzamide], the pEC50 is 6.47. This pEC50 lies 0.95 log units lower than the previous one. In the case of `CN(C)C(=O)c1cc(F)c(C2=CCN(Cc3cc4c(-c5ccc(N)cn5)ccnc4n3C)CC2)c(F)c1` [Example 1z17, 4-(1-((4-(5-aminopyridin-2-yl)-1-methyl-1H-pyrrolo[2,3-b]pyridin-2-yl)methyl)-1,2,3,6-tetrahydropyridin-4-yl)-3,5-difluoro-N,N-dimethylbenzamide], the pEC50 was 6.43.

For the compound `CN(C)C(=O)c1cc(F)c(C2=CCN(Cc3cc4c(-c5ccc(N)nn5)ccnc4n3C)CC2)c(F)c1` [Example 1z18, 4-(1-((4-(6-aminopyridazin-3-yl)-1-methyl-1H-pyrrolo[2,3-b]pyridin-2-yl)methyl)-1,2,3,6-tetrahydropyridin-4-yl)-3,5-difluoro-N,N-dimethylbenzamide], the negative-log EC50 (pEC50) is 6.69.

As for `[2H]C([2H])([2H])N(C(=O)c1cc(C)c(C2=CCN(Cc3cc4c(-c5ccc(N)nn5)ccnc4n3C)CC2)c(F)c1)C([2H])([2H])[2H]` [Example 1z20, 4-(1-((4-(6-aminopyridazin-3-yl)-1-methyl-1H-pyrrolo[2,3-b]pyridin-2-yl)methyl)-1,2,3,6-tetrahydropyridin-4-yl)-3-fluoro-5-methyl-N,N-bis(methyl-d3)benzamide], the pEC50 is 7.27. `CN(C)C(=O)c1ccc(C2=CCN(Cc3cc4c(-c5ccc(N)nc5)ccnc4n3C)CC2)c(C2CC2)c1` [Example 1z23, 4-(1-((4-(6-aminopyridin-3-yl)-1-methyl-1H-pyrrolo[2,3-b]pyridin-2-yl)methyl)-1,2,3,6-tetrahydropyridin-4-yl)-3-cyclopropyl-N,N-dimethylbenzamide] gave a pEC50 of 6.07. For the compound `Cc1cc(C(=O)N(C)C)cc(F)c1C1=CCN(C(C)c2cc3c(-c4ccc(N)nc4)ccnc3n2C)CC1` (stereo not drawn) [Example 1z28, 4-(1-(1-(4-(6-aminopyridin-3-yl)-1-methyl-1H-pyrrolo[2,3-b]pyridin-2-yl)ethyl)-1,2,3,6-tetrahydropyridin-4-yl)-3-fluoro-N,N,5-trimethylbenzamide], the pEC50 is 7.67.

In turn, `Cc1cc(C(=O)N(C)C)cc(F)c1C1=CCN([C@@H](C)c2cc3c(-c4ccc(N)nc4)ccnc3n2C)CC1` [Example 1z29, (S)-4-(1-(1-(4-(6-aminopyridin-3-yl)-1-methyl-1H-pyrrolo[2,3-b]pyridin-2-yl)ethyl)-1,2,3,6-tetrahydropyridin-4-yl)-3-fluoro-N,N,5-trimethylbenzamide] showed a negative logarithm of the EC50 (pEC50) of 5.97. `Cc1cc(C(=O)N(C)C)cc(F)c1C1=CCN([C@H](C)c2cc3c(-c4ccc(N)nc4)ccnc3n2C)CC1` [Example 1z30, (R)-4-(1-(1-(4-(6-aminopyridin-3-yl)-1-methyl-1H-pyrrolo[2,3-b]pyridin-2-yl)ethyl)-1,2,3,6-tetrahydropyridin-4-yl)-3-fluoro-N,N,5-trimethylbenzamide] had a pEC50 of 7.99.

In turn, `Cc1cc(C(=O)N(C)C)cc(F)c1C1=CCN(C(C)c2cc3c(-c4ccc(N)cn4)ccnc3n2C)CC1` (stereo not drawn) [Example 1z31, 4-(1-(1-(4-(5-aminopyridin-2-yl)-1-methyl-1H-pyrrolo[2,3-b]pyridin-2-yl)ethyl)-1,2,3,6-tetrahydropyridin-4-yl)-3-fluoro-N,N,5-trimethylbenzamide] had a pEC50 of 7.20. The same measure, in the same setting: under `Cc1cc(C(=O)N(C)C)cc(F)c1C1=CCN([C@@H](C)c2cc3c(-c4ccc(N)cn4)ccnc3n2C)CC1` [Example 1z32, (S)-4-(1-(1-(4-(5-aminopyridin-2-yl)-1-methyl-1H-pyrrolo[2,3-b]pyridin-2-yl)ethyl)-1,2,3,6-tetrahydropyridin-4-yl)-3-fluoro-N,N,5-trimethylbenzamide] stands 7.42.

Usually Emax stands for the size of the effect at its maximum, as opposed to the concentration needed. Broadly, the pEC50 is −log10 of the EC50, conventionally taken in molar units. The low end stands for a high EC50, the high end for a low EC50.
